Where two headings read alike, the source gives them in different places.
What was measured:
[1] = test system: leptin-deficient (ob/ob) mice; experiment: body weight study in leptin-deficient (ob/ob) mice, 56 days; format: in vivo, mouse
Method: Therefore, ob/ob mice are a predictive in vivo model for these indications. This example provides results of a study of DA plus another compound (CQL) on body weight in leptin-deficient (ob/ob) mice. Vehicle group (N=14) were treated with distilled water by gavage BID, and DA (N=14) at a dose of 50 mg/kg by gavage BID. The study period was for 56 days+2-3 days testing period afterward. Body weight change measured 3X per week, food intake was measure twice per week, metabolic biomarkers (blood glucose, blood insulin, blood HbA1c, HDL, LDL, triglyceride and bile acid) were measured at beginning and end of study. Cytokine analysis was measured at end on Day 56.

[2] = test system: microbial populations in fecal samples; experiment: microbiome study in NASH mouse model (AMLN diet), 4 weeks; format: in vivo
Description: There were changes in the microbiome in a mice model using a high-fat diet after 4 weeks of treatment with and without administering DA orally. The high fat diet itself induced extensive changes in the microbial populations in all groups. Importantly though, there was a pronounced difference between the DA treatment group and the control group at week 4.
The effect of a small molecule oral TAS2R agonist (DA) was investigated on microbial populations in a nonalcoholic steatohepatitis (NASH) mouse model. Two groups of 4-week-old male C57BL/6 mice (20/group) were fed Amylin Liver NASH (AMLN) diet and received daily doses of ARD-101 (30 mg/mL in water) or vehicle (water) via intragastric gavage. DNA was isolated from fecal samples collected at week 0 and 4, and microbial ecology was evaluated using bTEFAP (bacterial tag-encoded FLX amplicon pyrosequencing). Operational taxonomic units were classified using BLAST against a curated NCBI database. Diversity within specific ecosystems and microbial community structures was analyzed with Qiime 2. Differences were determined by repeated measures ANOVA and post hoc pairwise comparisons using Tukey's test. Taxonomic classification data were evaluated with a dual hierarchal dendrogram.

[3] = test system: acute lung injury plus hyperthermia, CD-1 mice; format: in vivo; settings: for tolerability: mouse, in vivo
Method: This example provides results of a second modified acute lung injury plus hyperthermia study to evaluate the effect of denatonium acetate. The same procedure was used as in Example 7. Starting three days before the induction of lung injury, groups of six CD-1 mice each were treated prophylactically with vehicle or 92.4 mg/kg denatonium acetate (DA) (administered by twice-daily (BID) oral gavage (PO)) or with 3 mg/kg DA (administered by once-daily (QD) intraperitoneal (IP) injection). On Day 0, lung injury was induced by intratracheal instillation with 50 μL of 1 mg/mL bacterial lipopolysaccharide (LPS), and hyperthermia was induced by placing the animals in a 39° C. incubator. On Day 1 (i.e., 24 hours after induction), animals were euthanized and bronchoalveolar lavage fluid (BALF) was collected. The BALF specimens were assessed for cytokine concentrations (using a multiplex bead-based assay), and protein levels, and neutrophil counts (by fluorescence-activated cell sorting (FACS)). Additionally, lungs were collected, fixed, stained with Masson's trichrome, and assessed histologically. Three days of repeat PO dosing with 92.4 mg/kg DA (BID) or IP dosing with 3 mg/kg DA (QD) was well-tolerated in female CD-1 mice. […] This inference is consistent with the observation that deaths were seen both with vehicle and test article dosing. No other adverse clinical observations were noted during 3 days of test article administration. […] IL-13, MIP-1β, MCSF, and MIG. […] Thus, BID PO treatment with 92.4 mg/kg DA or QD IP injection with 3 mg/kg DA provided significant attenuation of the accumulation of multiple cytokines in the lungs of this mouse model of acute lung injury, along with nominal activity in counteracting neutrophil infiltration and lung damage in these animals.

[4] = DA 50 mg/kg BID, day 56, no significant difference
[5] = DA 50 mg/kg gavage BID, 56 days
[6] = DA 50 mg/kg gavage BID, compared to vehicle
[7] = 4-week DA treatment, genetic potential of microbiome
[8] = treatment at 4 weeks versus baseline and control
[9] = week 4, DA group versus vehicle group, AMLN diet
[10] = IP 3 mg/kg QD, compared to vehicle
[11] = oral 92.4 mg/kg BID, compared to vehicle

CC(=O)[O-].CC[N+](CC)(CC(=O)Nc1c(C)cccc1C)Cc1ccccc1 [DA, denatonium acetate]
IL-1β level, decreased by, compared to the vehicle group [1, 4]: 19.1% | IL-6 level, decreased by, compared to the vehicle group [1, 4]: 61.4% | MCP-1 level, decreased by, compared to the vehicle group [1, 4]: 20.9% | RANTES level, decreased by, compared to the vehicle group [1, 4]: 1.7% | MIG (versus controls) ([1]; DA 50 mg/kg BID, day 56, p=0.026): significant decreases | Eotaxin (versus controls) ([1]; DA 50 mg/kg BID, day 56, p=0.047): significant decreases | serum HDL levels ([1]; DA 50 mg/kg gavage BID): no significant effects | body weight [1, 5]: no significant effect | daily food consumption [1, 5]: no significant effect | serum HBA1c levels [1, 5]: no significant effect | serum glucose levels [1, 5]: significantly decreased | serum insulin levels [1, 5]: no significant effect | serum LDL levels [1, 6]: significantly lowered | serum bile acids levels [1, 6]: significantly increased | serum triglyceride levels [1, 6]: significantly lowered | arginine and ornithine metabolism [2, 7]: significantly decreased signaling | pathways for biosynthesis of unsaturated fatty acids [2, 7]: significant enrichment | pathways for glycolysis and gluconeogenesis [2, 7]: significant enrichment | pathways for lysine degradation [2, 7]: significant enrichment | pathways for metabolism of arachidonic acid [2, 7]: significant enrichment | pathways for metabolism of cofactors and vitamins [2, 7]: significant enrichment | phosphatidylinositol signaling [2, 7]: significant enrichment | SCFAs in feces ([2]; AMLN diet, DA treatment): mitigated the diet-induced decrease | diversity within ecosystems and microbial communities ([2]; DA versus vehicle group at week 4, p<0.05): significantly less diversity | genus: Lachnoclostridium, Barnesiella, Clostridium, Oscillospira, Dorea, candidatus soleaferrea, Dehalobacterium, Oscillibacter, Flavonifractor [2, 8]: Significantly Decreased | genus: Parabacteroides, Escherichia, Erysipelatoclostridium, Peptoclostridium, Sutterella, Shigella, Brenneria [2, 8]: Significantly Increased | Cyanobacteria (phylum level) [2, 9]: significant increases | Deferribacteres (phylum level) [2, 9]: significant decreases | Firmicutes (phylum level) [2, 9]: significant decreases | Proteobacteria (phylum level) [2, 9]: significant increases | Spirochetes (phylum level) [2, 9]: significant decreases | Verrucomicrobia (phylum level) [2, 9]: significant increases | Bacteroidetes (phylum level) ([2]; week 4, not marked significant): decreased | BALF neutrophil counts (by FACS assay) ([3]; IP 3 mg/kg QD): nominal decreases | BALF protein concentrations ([3]; IP 3 mg/kg QD): nominal (but nonsignificant) changes | severity of lung pathology (by histological scoring) ([3]; IP 3 mg/kg QD): nominal decreases in the severity | BALF concentration of G-CSF [3, 10]: significant decreases | BALF concentration of IL2 [3, 10]: significant decreases | BALF concentration of IL-3 [3, 10]: significant decreases | BALF concentration of IL-4 [3, 10]: significant decreases | BALF concentration of IL-13 [3, 10]: significant decreases | BALF concentration of IP-10 [3, 10]: significant decreases | BALF concentration of M-CSF [3, 10]: significant decreases | BALF concentration of MCP-1 [3, 10]: significant decreases | BALF concentration of MIG [3, 10]: significant decreases | BALF concentration of eotaxin [3, 10]: significant decreases | tolerability ([3]; ip, 3 mg/kg): well-tolerated | tolerability ([3]; po, 92.4 mg/kg): well-tolerated | BALF neutrophil counts (by FACS assay) ([3]; oral 92.4 mg/kg BID): nominal decreases | BALF protein concentrations ([3]; oral 92.4 mg/kg BID): nominal (but nonsignificant) changes | severity of lung pathology (by histological scoring) ([3]; oral 92.4 mg/kg BID): nominal decreases in the severity | BALF concentration of IL-2 [3, 11]: significant decreases | BALF concentration of IL-3 [3, 11]: significant decreases | BALF concentration of IL-10 [3, 11]: significant decreases | BALF concentration of IL-13 [3, 11]: significant decreases | BALF concentration of MCSF [3, 11]: significant decreases | BALF concentration of MIG [3, 11]: significant decreases | BALF concentration of MIP-1β [3, 11]: significant decreases

Source: patent US20220193013A1, “Pharmaceutical Composition for Treatment or Prevention of Multiple Inflammatory Disorders” (priority 2020, published 2022)
